Among the data in patent publication US11180504B2 (ORCHID PHARMA LTD., priority 2016, dated 2021) are MIC values, retold here.

≈ marks a conversion by molar mass, not a printed value. Like-named read-outs stand apart in the source and are kept apart here.

Test [1] has as its system carbapenem sensitive Pseudomonas aeruginosa. Kind of test: MIC by broth micro-dilution (CLSI), carbapenem sensitive P. aeruginosa. In kind it is cell-based. A general note: Broth dilution looks for growth in wells or tubes with falling amounts of substance.
The test system of test [2] is carbapenem sensitive Escherichia coli. Kind of test: MIC by broth micro-dilution (CLSI), carbapenem sensitive E. coli. In kind it is cell-based.
The test system of test [3] is methicillin-sensitive Staphylococcus aureus. Kind of test: MIC by broth micro-dilution (CLSI), methicillin-sensitive S. aureus. Conditions: MSSA S. aureus ATCC29213. In kind it is cell-based.
The subject of test [4] is carbapenemase producing K. pneumoniae. Kind of test: MIC by broth micro-dilution (CLSI), carbapenemase producing K. pneumoniae. In kind it is cell-based, Klebsiella pneumoniae.
[5] abbreviates: Pseudomonas aeruginosa, ATCC27853, Meropenem susceptible P. aeruginosa ATCC27853, read-out: MIC.
The mark [6] stands for this setting: Escherichia coli, ATCC25922, ESBL −ve E. coli ATCC25922, read-out: MIC.
Setting [7] is: Staphylococcus aureus, ATCC 29213 / MSSA, read-out: MIC.
[8] abbreviates: Klebsiella pneumoniae, ATCCBAA1705, KPC-2 K. pneumoniae ATCC BAA-1705, read-out: MIC.
Where [9] appears, read: Meropenem susceptible P. aeruginosa ATCC27853.
[10] abbreviates: KPC-2 K. pneumoniae ATCC BAA-1705.

Regarding `CNCC(=O)N[C@H](C)[C@H]1C(=O)N2C(C(=O)O)=C(S[C@@H]3CN[C@H](C(=O)N4C[C@H](N)C[C@H]4c4ccccc4)C3)[C@H](C)[C@H]12` [Example 288], the MIC – broadly, the lowest concentration that inhibits growth of the organism – is more than 128 µg/mL in test [1] (setting [5]), 4 µg/mL (≈ 7.01 µM) in test [2] (setting [6]), 128 µg/mL (≈ 224 µM) in test [3] (setting [7]) and 16 µg/mL (≈ 28 µM) in test [4] (setting [8]).

On to `C[C@@H](NC(=O)Cn1cnnn1)[C@H]1C(=O)N2C(C(=O)O)=C(S[C@@H]3CN[C@H](C(=O)N4CCC5CNCC54)C3)[C@H](C)[C@H]12` (single isomer, unassigned) [Example 466], for which the MIC worked out at 4 µg/mL (≈ 7.15 µM) in test [1] (setting [5]), 0.5 µg/mL (≈ 0.893 µM) in test [2] (setting [6]), 4 µg/mL (≈ 7.15 µM) in test [3] (setting [7]) and 2 µg/mL (≈ 3.57 µM) in test [4] (setting [8]).

On to `C[C@@H](NC(=O)Cn1cnnn1)[C@H]1C(=O)N2C(C(=O)[O-])=C(SC3Cn4cnc[n+]4C3)[C@H](C)[C@H]12` (stereo partly drawn) [Example 306, (4R,5S,6R)-6-((R) - 1-(2-(1H-tetrazol-1-yl)acetamido)ethyl)-3-(6,7-dihydro-5H-pyrazolo[1,2-a][1,2,4]triazol-4-ium-6-ylthio)-4-methyl-7-oxo-1-azabicyclo[3.2.0]hept-2-ene-2-carboxylate], for which the MIC in test [1] (setting [5]) stood at 4 µg/mL (≈ 8.71 µM); in test [2] (setting [6]), 0.25 µg/mL (≈ 0.544 µM); in test [3] (setting [7]) it was 2 µg/mL (≈ 4.35 µM); in test [4] (setting [8]), 1 µg/mL (≈ 2.18 µM).

Consider `C[C@@H](NC(=O)Cn1cnnn1)[C@H]1C(=O)N2C(C(=O)O)=C(S[C@@H]3CN[C@H](C(=O)N4CC[C@@H](N)[C@H]4CO)C3)[C@H](C)[C@H]12` [Example 523, (4R,5S,6R)-6-((R)-1-(2-(1H-tetrazol-1-yl)acetamido)ethyl)-3-((3S,5S)-5-((2S,3R)-3-amino-2-(hydroxymethyl)pyrrolidine-1-carbonyl)pyrrolidin-3-ylthio)-4-methyl-7-oxo-1-azabicyclo[3.2.0]hept-2-ene-2-carboxylic acid], for which the MIC was 1 µg/mL (≈ 1.77 µM) in test [1] (setting [9]), 0.125 µg/mL (≈ 0.222 µM) in test [2] (ESBL −ve E. coli ATCC25922), 2 µg/mL (≈ 3.55 µM) in test [3] and 1 µg/mL (≈ 1.77 µM) in test [4] (setting [10]).

Turning to `C[C@@H](NC(=O)Cn1cnnn1)[C@H]1C(=O)N2C(C(=O)O)=C(S[C@@H]3CN[C@H](C(=O)Nc4ccc(CN)cc4)C3)[C@H](C)[C@H]12` [Example 484, (4R,5S,6R)-6-((R)-1-(2-(1H-tetrazol-1-yl)acetamido)ethyl)-3-((3S,5S)-5-(4-(aminomethyl)phenyl-carbamoyl)-pyrrolidin-3-ylthio)-4-methyl-7-oxo-1-azabicyclo[3.2.0]hept-2-ene-2-carboxylic acid], the MIC was 32 µg/mL (≈ 56.2 µM) in test [1] (setting [5]), 1 µg/mL (≈ 1.76 µM) in test [2] (setting [6]), 2 µg/mL (≈ 3.51 µM) in test [3] (setting [7]) and 4 µg/mL (≈ 7.02 µM) in test [4] (setting [8]).

Turning to `C[C@@H](NCC1CC1)[C@H]1C(=O)N2C(C(=O)O)=C(S[C@@H]3CN[C@H](C(=O)N(C)C)C3)[C@H](C)[C@H]12` [Example 293], the MIC was more than 128 µg/mL in test [1] (setting [5]), 32 µg/mL (≈ 73.3 µM) in test [2] (setting [6]), 128 µg/mL (≈ 293 µM) in test [3] (setting [7]) and 128 µg/mL (≈ 293 µM) in test [4] (setting [8]).

In the case of `C[C@@H](NC(=O)Cn1cnnn1)[C@H]1C(=O)N2C(C(=O)O)=C(S[C@@H]3CN[C@H](C(=O)N4CCC(N5CC[C@@H](N)C5)CC4)C3)[C@H](C)[C@H]12` [Example 409, (4R,5S,6R)-6-((R)-1-(2-(1H-tetrazol-1-yl)acetamido)ethyl)-3-((3S,5S)-5-(4-((R)-3-aminopyrrolidin-1-yl)piperidine-1-carbonyl)pyrrolidin-3-ylthio)-4-methyl-7-oxo-1-azabicyclo[3.2.0]hept-2-ene-2-carboxylic acid], the MIC is 4 µg/mL (≈ 6.49 µM) in test [1] (setting [5]), 1 µg/mL (≈ 1.62 µM) in test [2] (setting [6]), 4 µg/mL (≈ 6.49 µM) in test [3] (setting [7]) and 2 µg/mL (≈ 3.24 µM) in test [4] (setting [8]).

As to `C[C@@H](NS(=O)(=O)Cn1cnnn1)[C@H]1C(=O)N2C(C(=O)O)=C(S[C@@H]3CN[C@H](C(=O)N4CC[C@@H](N)C4)C3)[C@H](C)[C@H]12` [Example 380, (4R,5S,6S)-6-((R)-1-((1H-tetrazol-1-yl)methylsulfonamido)ethyl)-3-((3S,5S)-5-((R)-3-aminopyrrolidine-1-carbonyl)pyrrolidin-3-ylthio)-4-methyl-7-oxo-1-azabicyclo[3.2.0]hept-2-ene-2-carboxylic acid], the MIC was 32 µg/mL (≈ 56.2 µM) in test [1] (setting [5]), 1 µg/mL (≈ 1.76 µM) in test [2] (setting [6]), 32 µg/mL (≈ 56.2 µM) in test [3] (setting [7]) and 8 µg/mL (≈ 14 µM) in test [4] (setting [8]).

For the molecule `C[C@@H](NC(=O)Cn1cnnn1)[C@H]1C(=O)N2C(C(=O)O)=C(S[C@@H]3CN[C@H](C(=O)N4CCN(C[C@H](O)CN)CC4)C3)[C@H](C)[C@H]12` [Example 450, (4R,5S,6R)-6-((R)-1-(2-(1H-tetrazol-1-yl)acetamido)ethyl)-3-((3S,5S)-5-(4-((R)-3-amino-2-hydroxypropyl)piperazine-1-carbonyl)pyrrolidin-3-ylthio)-4-methyl-7-oxo-1-azabicyclo[3.2.0]hept-2-ene-2-carboxylic acid], the MIC came out at 1 µg/mL (≈ 1.65 µM) in test [1] (setting [5]), 0.25 µg/mL (≈ 0.412 µM) in test [2] (setting [6]), 8 µg/mL (≈ 13.2 µM) in test [3] (setting [7]) and 1 µg/mL (≈ 1.65 µM) in test [4] (setting [8]).

Regarding `C[C@@H](NC(=O)Cn1cnnn1)[C@H]1C(=O)N2C(C(=O)O)=C(S[C@@H]3CN[C@H](C(=O)N4CC5C[C@H]6C[C@@]5(CN6)C4)C3)[C@H](C)[C@H]12` (stereo partly drawn) [Example 541, (4R,5S,6R)-6-((R)-1-(2-(1H-tetrazol-1-yl)acetamido)ethyl)-3-((3S,5S)-5-((1R,7S)-3,8-Diaza-tricyclo[5.2.1.01,5]decane-3-carbonyl)pyrrolidin-3-ylthio)-4-methyl-7-oxo-1-azabicyclo[3.2.0]hept-2-ene-2-carboxylic acid], the MIC was 1 µg/mL (≈ 1.71 µM) in test [1] (setting [5]), 0.25 µg/mL (≈ 0.427 µM) in test [2] (setting [6]), 2 µg/mL (≈ 3.41 µM) in test [3] (setting [7]) and 1 µg/mL (≈ 1.71 µM) in test [4] (setting [8]).

On to `C[C@@H](NC(=O)Cn1cnnn1)[C@H]1C(=O)N2C(C(=O)O)=C(S[C@@H]3CN[C@H](C(=O)N4CCN([C@H]5CCNC5)CC4)C3)[C@H](C)[C@H]12` [Example 406, (4R,5S,6R)-6-((R)-1-(2-(1H-tetrazol-1-yl)acetamido)ethyl)-4-methyl-7-oxo-3-((3S,5S)-5-(4-((S)-pyrrolidin-3-yl]piperazine-1-carbonyl]pyrrolidin-3-ylthio)-1-azabicyclo[3.2.0]hept-2-ene-2-carboxylic acid], for which the MIC in test [1] (setting [5]) came to 16 µg/mL (≈ 26.5 µM); in test [2] (setting [6]) it was 0.25 µg/mL (≈ 0.415 µM); in test [3] (setting [7]), 4 µg/mL (≈ 6.64 µM); in test [4] (setting [8]), 2 µg/mL (≈ 3.32 µM).

Regarding `C[C@@H](NC(=O)[C@H]1CS(=O)(=O)CN1)[C@H]1C(=O)N2C(C(=O)O)=C(S[C@@H]3CN[C@H](C(=O)N(C)C)C3)[C@H](C)[C@H]12` [Example 284], the MIC in test [1] (setting [5]) worked out at 64 µg/mL (≈ 121 µM); in test [2] (setting [6]), 1 µg/mL (≈ 1.89 µM); in test [3] (setting [7]) it was 1 µg/mL (≈ 1.89 µM); in test [4] (setting [8]), 4 µg/mL (≈ 7.55 µM).

With `C[C@@H](NC(=O)Cn1cnnn1)[C@H]1C(=O)N2C(C(=O)O)=C(S[C@@H]3CN[C@H](C(=O)N4CCCCC45CCNCC5)C3)[C@H](C)[C@H]12` [Example 476, (4R,5S,6R)-3-((3S,5S)-5-(1,9-diazaspiro[5.5]undecane1-carbonyl)pyrrolidin-3-ylthio)-6-((R)-1-(2-(1H-tetrazol-1-yl)acetamido)ethyl)-4-methyl-7-oxo-1-azabicyclo[3.2.0]hept-2-ene-2-carboxylic acid], the MIC in test [1] (setting [5]) is 32 µg/mL (≈ 53.2 µM); in test [2] (setting [6]), 1 µg/mL (≈ 1.66 µM); in test [3] (setting [7]), 2 µg/mL (≈ 3.32 µM); in test [4] (setting [8]), 2 µg/mL (≈ 3.32 µM).

Turning to `C[C@@H](NC(=O)Cn1cnnn1)[C@H]1C(=O)N2C(C(=O)O)=C(S[C@@H]3CN[C@H](C(=O)N4CC[C@@H](N(C)C)C4)C3)[C@H](C)[C@H]12` [Example 410, (4R,5S,6R)-6-((R)-1-(2-(1H-tetrazol-1-yl)acetamido)ethyl)-3-((3S,5S)-5-((R)-3-(dimethylamino)pyrrolidine-1-carbonyl)pyrrolidin-3-ylthio)-4-methyl-7-oxo-1-azabicyclo[3.2.0]hept-2-ene-2-carboxylic acid], the MIC in test [1] (setting [5]) stood at 4 µg/mL (≈ 7.12 µM); in test [2] (setting [6]), 0.5 µg/mL (≈ 0.89 µM); in test [3] (setting [7]), 2 µg/mL (≈ 3.56 µM); in test [4] (setting [8]) it was 4 µg/mL (≈ 7.12 µM).

For `C[C@@H](NC(=O)Cn1cnnn1)[C@H]1C(=O)N2C(C(=O)O)=C(S[C@@H]3CN[C@H](C(=O)N4CCC5CNCCC54)C3)[C@H](C)[C@H]12` (stereo partly drawn) [Example 439, (4R,5S,6R)-6-((R)-1-(2-(1H-tetrazol-1-yl)acetamido)ethyl)-4-methyl-3-((3S,5S)-5-(octahydro-1H-pyrrolo[3,2-c]pyridine-1-carbonyl)pyrrolidin-3-ylthio)-7-oxo-1-azabicyclo[3.2.0]hept-2-ene-2-carboxylic acid], the MIC came to 1 µg/mL (≈ 1.74 µM) in test [1] (setting [9]), 0.25 µg/mL (≈ 0.436 µM) in test [2] (ESBL −ve E. coli ATCC25922), 2 µg/mL (≈ 3.49 µM) in test [3] and 1 µg/mL (≈ 1.74 µM) in test [4] (setting [10]).

For the molecule `C[C@@H](NC(=O)Cn1nnnc1C(F)F)[C@H]1C(=O)N2C(C(=O)O)=C(S[C@@H]3CN[C@H](C(=O)N4CC[C@@H](N)C4)C3)[C@H](C)[C@H]12` [Example 349, (4R,5S,6R)-3-((3S,5S)-5-((R)-3-aminopyrrolidine-1-carbonyl)pyrrolidin-3-ylthio)-6-((R)-1-(2-(5-(difluoromethyl)-1H-tetrazol-1-yl)acetamido)ethyl)-4-methyl-7-oxo-1-azabicyclo[3.2.0]hept-2-ene-2-carboxylic acid], the MIC in test [1] (setting [5]) was 32 µg/mL (≈ 54.8 µM); in test [2] (setting [6]) it was 0.25 µg/mL (≈ 0.428 µM); in test [3] (setting [7]) it was 4 µg/mL (≈ 6.85 µM); in test [4] (setting [8]) it was 4 µg/mL (≈ 6.85 µM).

As to `C[C@@H](NC(=O)Cn1nnnc1C1CC1)[C@H]1C(=O)N2C(C(=O)O)=C(S[C@@H]3CN[C@H](C(=O)N(C)C)C3)[C@H](C)[C@H]12` [Example 378], the MIC in test [1] (setting [5]) was 128 µg/mL (≈ 240 µM); in test [2] (setting [6]), 0.25 µg/mL (≈ 0.469 µM); in test [3] (setting [7]), 4 µg/mL (≈ 7.51 µM); in test [4] (setting [8]), 2 µg/mL (≈ 3.75 µM).
